For data set [1], the system named is U-1810. The data set is described as follows: cells. Format: cell-based. The conditions noted are these: U-1810.
Data set [2] relates to solid tumour fresh human tumour specimens (PHTC). The data set can be described thus: cells. The conditions noted are these: 72 h, read-out: Tumour cell survival index % Solid.
For data set [3], the system named is U-1906E. The data set can be described thus: cells. Format: cell-based.
Data set [4] has as its system U-1568. The data set can be described thus: cells. The data set is classed as cell-based.
The subject of data set [5] is U1285. The data set is described as follows: cells. Format: cell-based.
Data set [6] deals with NCI-H125. The data set is described as follows: cells. The data set is classed as cell-based. The conditions noted are these: Homo sapiens, NCI-H125.
The test system of data set [7] is U1906L. The data set can be described thus: cells. Format: cell-based.
For data set [8], the system named is NCI-H157. The data set is described as follows: cells. The conditions noted are these: Homo sapiens, NCI-H157. Format: cell-based.
The subject of data set [9] is U1690. The data set can be described thus: cells. The data set is classed as cell-based.
Data set [10] has as its system U-1752. The data set is described as follows: cells. Format: cell-based.
Data set [11] concerns NCI-H611. The data set is described as follows: cells. Format: cell-based.
Data set [12] has as its system NCI-H23. The data set is described as follows: cells. Particulars: Homo sapiens, NCI-H23. Format: cell-based.
For data set [13], the system named is H69AR. The data set is described as follows: cells. The data set is classed as cell-based, human. The conditions noted are these: H69AR.
Data set [14] relates to CEM/R. The data set can be described thus: cells. The data set is classed as cell-based, human.
Data set [15] concerns CEM/S. The data set can be described thus: cells. Format: cell-based, human.
Data set [16] concerns 8226LR5. The data set is described as follows: cells. Format: cell-based, human.
The subject of data set [17] is hematological fresh human tumour specimens (PHTC). The data set can be described thus: cells. The conditions noted are these: 72 h, read-out: Tumour cell survival index % Hematological.
The test system of data set [18] is 8226Dox40. The data set is described as follows: cells. Format: cell-based, human.
The test system of data set [19] is 8226S. The data set can be described thus: cells. The data set is classed as cell-based, human.
Data set [20] deals with H69. The data set is described as follows: cells. The data set is classed as cell-based, human.
The test system of data set [21] is U937vcr. The data set is described as follows: cells. Format: cell-based, human.
Data set [22] relates to U937gtb. The data set is described as follows: cells. Format: cell-based, human.
Data set [23] concerns panel of ten human tumour cell lines. The data set is described as follows: cells. Format: cell-based. The conditions noted are these: read-out: MEAN IC50.
The subject of data set [24] is ACHN. The data set can be described thus: cells. Format: cell-based, human. Particulars: ACHN.
Data set [25] concerns Hematological tumours (PHTC). The data set can be described thus: FMCA in PHTC cultures, Table 4, hematological. The conditions noted are these: 4 µM; n=7-11; 4320 min.
In data set [26] the test system is Solid tumours (PHTC). The data set is described as follows: FMCA in PHTC cultures, Table 4, solid. The conditions noted are these: 4 µM; n=12-20; 4320 min.
Data set [27] relates to PHTC samples from 9 patients with hematological and 18 patients with solid tumours. The data set can be described thus: Circumvention of melphalan resistance: FMCA classification of PHTC samples as LDR, IDR, EDR. Format: cell-based, human. Particulars: tested at 4 µM; for Number of samples EDR / Number of samples (%) EDR: Extreme drug resistance; for Number of samples (%) EDR / Number of samples (%) IDR / Number of samples (%) LDR: percent of samples; for Number of samples IDR / Number of samples (%) IDR: Intermediate drug resistance; for Number of samples LDR / Number of samples (%) LDR: Low drug resistance.

Data set [28] relates to Prostate cancer. The data set can be described thus: Cytotoxic activity in different tumour models. The data set is classed as cell-based, human. Particulars: Number 1.
Data set [29] concerns Ovarian carcinoma. The data set can be described thus: Cytotoxic activity in different tumour models. The data set is classed as cell-based, human. Particulars: Number 8.
Data set [30] has as its system primary cultures of human tumor cells from patients (PHTC), Total. The data set can be described thus: FMCA in PHTC cultures, Table 4, total. Particulars: 4 µM; n=19-31; 4320 min.
The test system of data set [31] is Breast cancer. The data set is described as follows: Cytotoxic activity in different tumour models. Particulars: Number 4. The data set is classed as cell-based, human.
Data set [32] has as its system NSC Lung cancer. The data set is described as follows: Cytotoxic activity in different tumour models. The data set is classed as cell-based, human. The conditions noted are these: Number 8.
For data set [33], the system named is Adeno-carcinoma. The data set is described as follows: Cytotoxic activity in different tumour models. Format: cell-based, human. The conditions noted are these: Number 5.
Data set [34] relates to Corpus cancer. The data set can be described thus: Cytotoxic activity in different tumour models. Format: cell-based, human. The conditions noted are these: Number 4.
The mark [35] stands for this setting: doxorubicin resistance, 72 hours incubation, read-out: IC50.
Setting [36] is: CEM/R, 72 hours incubation, read-out: IC50.
Where [37] appears, read: CEM/S, 72 hours incubation, read-out: IC50.
Where [38] appears, read: 8226LR5, melphalan resistance, 72 hours incubation, read-out: IC50.
Where [39] appears, read: 8226Dox40, doxorubicin resistance, 72 hours incubation, read-out: IC50.
The mark [40] stands for this setting: 8226S, myeloma, 72 hours incubation, read-out: IC50.
The mark [41] stands for this setting: H69, small cell lung cancer, 72 hours incubation, read-out: IC50.
The mark [42] stands for this setting: U937vcr, vincristine resistance, 72 hours incubation, read-out: IC50.
Setting [43] is: U937gtb, lymphoma, 72 hours incubation, read-out: IC50.
Where [44] appears, read: primary resistant renal carcinoma, 72 hours incubation, read-out: IC50.

Read-outs that look alike come from different tables or passages of the source.

For the compound `CC(=O)O[C@@]12CO[C@@H]1C[C@H](O)[C@@]1(C)C(=O)[C@H](O)C3=C(C)[C@@H](OC(=O)[C@H](O)[C@@H](NC(=O)OC(C)(C)C)c4ccccc4)C[C@@](O)([C@@H](OC(=O)c4ccccc4)[C@H]21)C3(C)C` [Docetaxel, docetaxel], the half-inhibitory concentration (IC50) – broadly, the concentration that gives 50% inhibition – in [1] turned out to be 100 nM; in [3], 100 nM; in [4], 5940 nM; in data set [5], 100 nM; in data set [6], 160 nM; in data set [7] it was 100 nM. The IC50 stood at 100 nM in data set [8]; 7700 nM in [9]; 460 nM in data set [10]; 1100 nM in data set [11]; 1500 nM in data set [12]. In addition, in data set [2], the viability at 6.2 µM turned out to be 67%.
Regarding `COc1cccc2c1C(=O)c1c(O)c3c(c(O)c1C2=O)C[C@@](O)(C(=O)CO)C[C@@H]3O[C@H]1C[C@H](N)[C@H](O)[C@H](C)O1` [Doxorubicin, doxorubicin], the half-maximal inhibitory concentration (IC50) came to 22800 nM in data set [1]; 11600 nM in [13] (Homo sapiens, 72 h); 440 nM in data set [3]; 183000 nM in data set [4]; 520 nM in data set [5]; 1310 nM in [14] (Homo sapiens, 72 h). Also, the IC50 in [6] stood at 500 nM; in data set [7] it was 920 nM; in [15] (Homo sapiens, 72 h), 180 nM; in data set [16] (Homo sapiens, 72 h) it was 550 nM; in data set [18] (Homo sapiens, 72 h), 4970 nM; in data set [8], 200 nM. For the same compound, the IC50 in data set [19] (Homo sapiens, 72 h) was determined as 130 nM; in data set [9], 2210 nM; in data set [20] (Homo sapiens, NCI-H69, 72 h) it was 1660 nM; in [21] (Homo sapiens, 72 h), 420 nM; in data set [22] (Homo sapiens, U-937/GTB, 72 h) it was 110 nM; in [10], 420 nM. The half-inhibitory concentration (IC50) in [11] came out at 183000 nM; in data set [23] (Homo sapiens), 3510 nM; in data set [12] it was 140 nM; in data set [24] (Homo sapiens, 72 h), 14200 nM. Further, the viability at 0.92 µM in data set [2] was determined as 97%; in data set [17], 29%.
On to `CCOC(=O)[C@H](Cc1ccc(F)cc1)NC(=O)[C@H](Cc1ccc(N(CCCl)CCCl)cc1)NC(=O)[C@@H]1CCCN1.Cl` [Example J3, L-Prolinyl-L-melphalanyl-L-p-fluorophenylalanine ethyl ester hydrochloride], for which, in [25], the “Tumour cell survival index (%) Hematological tumours” value came to 7%. Further, the concentration for half-maximal inhibition (IC50) in data set [13] (setting [35]) came to 1360 nM; in [14] (setting [36]) it was 20 nM; in data set [15] (setting [37]), 60 nM; in data set [16] (setting [38]), 3520 nM; in data set [18] (setting [39]) it was 5660 nM; in data set [19] (setting [40]), 1510 nM. The half-maximal inhibitory concentration (IC50) was determined as 200 nM in data set [20] (setting [41]); 420 nM in data set [21] (setting [42]); 230 nM in [22] (setting [43]); 1470 nM in [23] (mean over the ten cell lines); 1720 nM in data set [24] (setting [44]). For the same compound, the “Tumour cell survival index (%) Solid tumours” value in data set [26] worked out at 36.3%. Moreover, the “Number of samples EDR” value in [27] is given as 0 (0%). Moreover, the “Number of samples (%) EDR” value in data set [27] is reported as 0 (0%). In addition, in data set [27], the “Number of samples IDR” value is 4. In [27], the “Number of samples (%) IDR” value turned out to be 15%. Besides, in data set [27], the “Number of samples LDR” value worked out at 23. Moreover, the “Number of samples (%) LDR” value in [27] was found to be 85%. Moreover, the “Median response at 4.0 µM >50% reduction in tumour cell survival” value in [28], in data set [29], in data set [31], in data set [32], in data set [33] and in [34] was “Yes” in each case. Further, in [30], the “Tumour cell survival index (%) Total” value came out at 25.9%.
Regarding `CC(C)OC(=O)[C@H](Cc1ccc(F)cc1)NC(=O)[C@@H](N)Cc1ccc(N(CCCl)CCCl)cc1.Cl` [JV28, L-Melphalanyl-L-p-fluorophenylalanine isopropyl ester hydrochloride], the “Tumour cell survival index (%) Hematological tumours” value in [25] was 6.7%. For the same compound, the half-inhibitory concentration (IC50) came out at 370 nM in data set [13] (setting [35]); 40 nM in data set [14] (setting [36]); 60 nM in data set [15] (setting [37]); 1880 nM in data set [16] (setting [38]); 890 nM in data set [18] (setting [39]); 510 nM in [19] (setting [40]). The IC50 in [20] (setting [41]) amounted to 50 nM; in [21] (setting [42]), 150 nM; in data set [22] (setting [43]), 100 nM; in data set [23] (mean over the ten cell lines), 410 nM; in [24] (setting [44]), 50 nM. Also, in data set [26], the “Tumour cell survival index (%) Solid tumours” value was 44.2%. Also, the “Number of samples EDR” value in data set [27] is given as 1. Besides, the “Number of samples (%) EDR” value in [27] is recorded as 6%. Besides, the “Number of samples IDR” value in data set [27] came to 2. Further, the “Number of samples (%) IDR” value in data set [27] is recorded as 12%. In addition, the “Number of samples LDR” value in data set [27] is listed as 14. In data set [27], the “Number of samples (%) LDR” value is given as 82%. Besides, the “Median response at 4.0 µM >50% reduction in tumour cell survival” value in [28], in data set [29], in [31], in data set [32] and in data set [33] was “Yes” each time. The “Tumour cell survival index (%) Total” value in [30] is reported as 30.4%.
